Experiments:
[1] = target: T1, GBA (Homo sapiens, UniProt P04062); test: Competitive ABPP (cABPP) with ABP 10 in HEK293T cell lysates, GBA; format: biochemical; conditions: cell lysate, 30 min incubation
T1 construct: HEK293T cells that contain endogenous GBA; endogenous in cells; host or cells: HEK293T (ATCC CRL-3216) overexpressing GBA2 and GBA3
T1 sequence (P04062 40-536): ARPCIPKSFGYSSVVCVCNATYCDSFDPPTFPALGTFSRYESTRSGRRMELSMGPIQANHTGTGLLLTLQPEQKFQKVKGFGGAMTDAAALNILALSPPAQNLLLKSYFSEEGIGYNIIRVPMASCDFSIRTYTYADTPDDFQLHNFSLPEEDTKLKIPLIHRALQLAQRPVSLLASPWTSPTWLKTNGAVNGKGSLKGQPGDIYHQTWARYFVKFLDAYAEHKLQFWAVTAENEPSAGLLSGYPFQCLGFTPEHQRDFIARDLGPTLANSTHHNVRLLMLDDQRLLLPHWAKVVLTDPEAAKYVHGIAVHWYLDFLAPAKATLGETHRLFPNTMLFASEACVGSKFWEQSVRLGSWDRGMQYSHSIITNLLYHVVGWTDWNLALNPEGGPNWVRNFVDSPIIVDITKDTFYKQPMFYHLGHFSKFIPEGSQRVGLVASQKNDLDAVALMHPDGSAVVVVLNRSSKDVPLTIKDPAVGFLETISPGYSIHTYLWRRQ
Protocol: (§1) In the first instance, the inhibitory potency of 1 and 2 for GBA, GBA2, and GBA3 was assessed by competitive activity‐based protein profiling (cABPP). For this, we first generated HEK293T cells that contain endogenous GBA and overexpress human GBA2 and GBA3.
(§2) Figure 3 Selectivity of compounds visualized by competitive ABPP labeling of β‐D‐glucosidase. Lysates of HEK293T cells expressing human GBA, GBA2 and GBA3 were incubated with compounds 1–5 at indicated concentrations for 30 min, following by cABPP with ABP 10.
(§3) ABP labeling procedure: Glycosidases were labeled with excess fluorescent ABPs at optimum conditions. ABP labeling was performed at 37 °C for 30 min for all materials (if not otherwise stated), in a total sample volume of 20–40 μL and 0.5–1 % DMSO concentration. GBA was labeled with 200 nM ABP 9 (pH 5.2, 0.1 % (v/v) Triton‐100, 0.2 % (w/v) sodium taurocholate), or labeled together with GBA2 using 200 nM β‐D‐glucose‐configured aziridine ABP 10 at pH 5.8, or labeling together with GBA2 and GBA3 using 200 nM β‐D‐glucose‐configured aziridine ABP 10 at pH 6.0. After ABP incubation, proteins were denatured by boiling the samples with 5× Laemmli buffer (50 % (v/v) 1 M Tris‐HCl, pH 6.8, 50 % (v/v) 100 % glycerol, 10 % (w/v) DTT, 10 % (w/v) SDS, 0.01 % (w/v) bromophenol blue) for 5 min at 98 °C, and separated by electrophoresis on 10 % (w/v) SDS‐PAGE gels running continuously at 90 V. Wet slab‐gels were scanned on fluorescence using the Typhoon FLA 9500 (GE Healthcare) at λEX 473 nm and λEM≥510 nm for green fluorescent ABP 8; and at λEX 635 nm and λEM≥665 nm for ABP 6, 9 and 10. ABP‐emitted fluorescence was quantified using ImageQuant software (GE Healthcare, Chicago, IL, USA) and curve‐fitted using Prism 8.0 (GraphPad Software). After fluorescence scanning, SDS‐PAGE gels were stained for total protein with Coomassie G250 and scanned on a ChemiDoc MP imager (Bio‐Rad, Hercules, CA, USA).[25]

[2] = target: T2, GBA2 (Homo sapiens, UniProt Q9HCG7); test: Competitive ABPP (cABPP) with ABP 10 in HEK293T cell lysates, GBA2; format: biochemical; conditions: cell lysate, 30 min incubation
T2 construct: expressed in transfected cells; host or cells: HEK293T (GBA/GBA2 KO background for the fluorogenic assay; endogenous-GBA background with GBA2 and GBA3 overexpressed for ABPP and intact-cell assays)
T2 sequence (Q9HCG7 1-927): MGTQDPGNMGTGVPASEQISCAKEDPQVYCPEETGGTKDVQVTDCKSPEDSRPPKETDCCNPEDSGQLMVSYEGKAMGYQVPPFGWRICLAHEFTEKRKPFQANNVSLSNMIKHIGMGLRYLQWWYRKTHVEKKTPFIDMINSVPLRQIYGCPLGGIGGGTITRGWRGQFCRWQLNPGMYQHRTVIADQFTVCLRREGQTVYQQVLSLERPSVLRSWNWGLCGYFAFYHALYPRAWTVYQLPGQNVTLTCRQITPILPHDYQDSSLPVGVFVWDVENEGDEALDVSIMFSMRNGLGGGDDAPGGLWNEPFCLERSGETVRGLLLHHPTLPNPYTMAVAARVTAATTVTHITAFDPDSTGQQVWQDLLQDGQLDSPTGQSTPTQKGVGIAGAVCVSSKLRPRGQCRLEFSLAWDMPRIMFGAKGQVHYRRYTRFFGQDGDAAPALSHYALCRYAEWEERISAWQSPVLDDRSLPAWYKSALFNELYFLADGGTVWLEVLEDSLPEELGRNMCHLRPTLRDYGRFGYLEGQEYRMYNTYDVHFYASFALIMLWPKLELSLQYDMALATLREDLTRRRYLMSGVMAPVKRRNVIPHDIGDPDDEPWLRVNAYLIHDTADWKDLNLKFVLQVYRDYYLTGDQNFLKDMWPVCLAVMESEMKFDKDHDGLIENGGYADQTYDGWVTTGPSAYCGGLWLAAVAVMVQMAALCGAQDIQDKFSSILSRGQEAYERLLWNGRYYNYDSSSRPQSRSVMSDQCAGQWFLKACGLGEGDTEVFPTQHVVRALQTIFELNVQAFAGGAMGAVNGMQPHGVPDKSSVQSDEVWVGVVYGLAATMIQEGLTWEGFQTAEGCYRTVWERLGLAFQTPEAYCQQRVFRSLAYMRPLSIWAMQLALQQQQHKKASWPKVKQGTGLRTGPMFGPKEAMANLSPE
Protocol: as §1, §2, §3

Compound | concentration competing ABP 10 labeling of GBA [1] | competition of ABP 10 labeling of GBA2 [2] | concentration competing ABP 10 labeling of GBA2 [2] | competition of ABP 10 labeling of GBA [1]
O[C@@H]1[C@@H](O)[C@H](O)C[C@H]2O[C@@H]12 [compound 1, xylo‐cyclophellitol] | 10 to 100 µM | but not that of GBA2 or GBA3 | – | –
O[C@@H]1[C@@H](O)[C@H](O)C[C@H]2N[C@@H]12 [compound 2, β‐D‐xylo‐Cyclophellitol aziridine] | 1 to 10 µM | – | 100 µM | –
OC[C@@H]1[C@@H](O)[C@H](O)[C@@H](O)[C@@H]2O[C@H]12 [compound 3, cyclophellitol] | 0.1 to 1 µM | – | 0.1 to 1 µM | –
OC[C@@H]1[C@@H](O)[C@H](O)[C@@H](O)[C@@H]2N[C@H]12 [compound 4, cyclophellitol aziridine, reference compound] | 0.1 to 1 µM | – | 0.1 to 1 µM | –
[N-]=[N+]=NCCCCCCCCN1[C@H]2[C@H](O)[C@@H](O)[C@H](O)C[C@H]21 (stereo partly drawn) [compound 5] | – | – | – | greatly enhances inhibitory potency

Source: PMC8596838, “Xylose‐Configured Cyclophellitols as Selective Inhibitors for Glucocerebrosidase” (Chembiochem, 2021)
